In ChEMBL document CHEMBL3877299, “Imidazopyridine-fused [1,3]-diazepinones part 2: Structure-activity relationships and antiproliferative activity against melanoma cells” (Eur J Med Chem, 2017):

Biological target: Mitogen-activated protein kinase kinase kinase kinase 4 (Homo sapiens, UniProt O95819)
Assay: Inhibition of recombinant human HGK using Ulight-FLGFTYVAP as substrate after 90 mins by LANCE assay
Conditions: not given

Sequence of Mitogen-activated protein kinase kinase kinase kinase 4 (O95819 whole entry): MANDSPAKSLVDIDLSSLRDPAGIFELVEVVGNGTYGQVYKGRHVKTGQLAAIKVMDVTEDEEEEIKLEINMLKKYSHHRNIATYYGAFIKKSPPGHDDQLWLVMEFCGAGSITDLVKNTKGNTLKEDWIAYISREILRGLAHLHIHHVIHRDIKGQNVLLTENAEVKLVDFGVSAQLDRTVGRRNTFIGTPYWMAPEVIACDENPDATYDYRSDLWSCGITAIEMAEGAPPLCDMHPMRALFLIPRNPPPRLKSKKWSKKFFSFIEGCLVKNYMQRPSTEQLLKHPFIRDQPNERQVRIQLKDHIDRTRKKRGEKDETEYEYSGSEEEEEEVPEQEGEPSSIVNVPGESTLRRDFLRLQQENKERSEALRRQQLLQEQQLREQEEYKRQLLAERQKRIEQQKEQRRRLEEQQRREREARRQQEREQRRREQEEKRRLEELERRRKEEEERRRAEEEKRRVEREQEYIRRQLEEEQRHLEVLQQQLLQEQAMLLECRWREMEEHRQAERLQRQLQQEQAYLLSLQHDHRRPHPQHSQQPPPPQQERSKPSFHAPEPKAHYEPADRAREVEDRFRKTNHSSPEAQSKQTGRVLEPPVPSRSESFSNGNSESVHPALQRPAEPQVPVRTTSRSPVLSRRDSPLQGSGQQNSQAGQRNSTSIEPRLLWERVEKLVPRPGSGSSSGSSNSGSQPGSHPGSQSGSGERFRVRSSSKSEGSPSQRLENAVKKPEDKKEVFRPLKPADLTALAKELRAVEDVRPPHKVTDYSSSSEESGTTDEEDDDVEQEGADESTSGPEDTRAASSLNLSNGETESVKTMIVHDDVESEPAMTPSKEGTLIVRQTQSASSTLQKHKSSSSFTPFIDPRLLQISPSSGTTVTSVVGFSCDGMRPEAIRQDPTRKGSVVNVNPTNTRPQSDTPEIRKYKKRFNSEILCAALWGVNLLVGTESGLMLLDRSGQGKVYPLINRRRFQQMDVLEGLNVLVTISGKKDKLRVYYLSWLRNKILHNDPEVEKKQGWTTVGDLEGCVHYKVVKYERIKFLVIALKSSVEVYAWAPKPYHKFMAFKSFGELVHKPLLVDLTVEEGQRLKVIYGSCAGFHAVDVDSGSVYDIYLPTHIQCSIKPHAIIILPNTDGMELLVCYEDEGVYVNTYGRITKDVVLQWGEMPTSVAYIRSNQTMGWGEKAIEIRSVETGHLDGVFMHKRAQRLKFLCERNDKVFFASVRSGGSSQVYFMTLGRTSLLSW

Row | SMILES | IC50
1 | C[C@H]1NC(c2ccc(Br)cc2)=Nc2nc3ccccn3c2C1=O | > 100 µM
2 | CC(C)[C@@H]1NC(c2ccc(Br)cc2)=Nc2nc3ccccn3c2C1=O | 44 µM
3 | CC(=O)Nc1ccc(C2=Nc3nc4ccccn4c3C(=O)[C@H](C)N2)cc1 | > 100 µM
4 | C[C@@H]1NC(c2ccc(-c3ccccc3)cc2)=Nc2nc3ccccn3c2C1=O | > 100 µM

Test system: not listed separately
Assay: Cytotoxicity against human MDA-MB-435 cells assessed as growth inhibition after 48 hrs by MTT assay
Format: functional
Conditions: MDA-MB-435, 48 h

Row | SMILES | GI50
5 | C[C@H]1NC(c2ccc(Br)cc2)=Nc2nc3ccccn3c2C1=O | > 100 µM
6 | C[C@@H]1NC(c2ccc(I)cc2)=Nc2nc3ccccn3c2C1=O | 1.35 µM
7 | O=C(NCCCC[C@@H]1NC(c2ccc(Br)cc2)=Nc2nc3ccccn3c2C1=O)OCc1ccccc1 | > 10 µM
8 | C[C@@H]1NC(c2ccc(Cl)c(C(F)(F)F)c2)=Nc2nc3ccccn3c2C1=O | > 10 µM
9 | C[C@@H]1NC(c2ccccc2Br)=Nc2nc3ccccn3c2C1=O | 8.35 µM
10 | Cc1ccccc1C1=Nc2nc3ccccn3c2C(=O)[C@H](C)N1 | > 10 µM
11 | C[C@@H]1NC(c2ccc(Br)cc2)=Nc2nc3ccccn3c2[C@H]1O | > 10 µM
12 | C[C@@H]1NC(c2ccc(C(F)(F)F)cc2)=Nc2nc3ccccn3c2C1=O | > 10 µM
13 | CC(C)[C@@H]1NC(c2ccc(Br)cc2)=Nc2nc3ccccn3c2C1=O | 50 µM
14 | O=C1c2c(nc3ccccn23)N=C(c2ccc(Br)cc2)N[C@H]1CO | 0.95 to 1 µM
15 | C[C@@H]1NC(c2cccc(Cl)c2)=Nc2nc3ccccn3c2C1=O | 10 µM
16 | O=C1CNC(c2ccc(Br)cc2)=Nc2nc3ccccn3c21 | > 10 µM
17 | C[C@@H]1NC(c2ccc(C#N)cc2)=Nc2nc3ccccn3c2C1=O | > 10 µM
18 | C[C@@H]1NC(c2ccc(F)cc2)=Nc2nc3ccccn3c2C1=O | > 10 µM
19 | C[C@@H]1NC(c2ccccc2Cl)=Nc2nc3ccccn3c2C1=O | 6.5 µM
20 | CNC(=O)c1ccc(C2=Nc3nc4ccccn4c3C(=O)[C@H](C)N2)cc1 | > 10 µM
21 | NCCCC[C@@H]1NC(c2ccc(Br)cc2)=Nc2nc3ccccn3c2C1=O | > 10 µM
22 | CC(=O)Nc1ccc(C2=Nc3nc4ccccn4c3C(=O)[C@H](C)N2)cc1 | 10 to 100 µM
23 | C[C@@H]1NC(c2cccc(Br)c2)=Nc2nc3ccccn3c2C1=O | > 10 µM
24 | C[C@@H]1NC(c2ccc(-c3ccccc3)cc2)=Nc2nc3ccccn3c2C1=O | 40 µM
25 | COc1ccc(C2=Nc3nc4ccccn4c3C(=O)[C@H](C)N2)cc1OC | > 10 µM
26 | CC[C@@H]1NC(c2ccc(Br)cc2)=Nc2nc3ccccn3c2C1=O | 1 µM
27 | C[C@@H]1NC(c2cccc3ccccc23)=Nc2nc3ccccn3c2C1=O | 1.4 µM
28 | CCOC(=O)c1ccc(C2=Nc3nc4ccccn4c3C(=O)[C@H](C)N2)cc1 | > 10 µM
29 | C[C@H]1C(=O)c2c(nc3ccccn23)N=C(c2ccc(Br)cc2)N1C | > 10 µM
